Experimental data: patent US12285399B2, “Composition comprising bornyl acetate or pharmaceutically acceptable salt thereof as active ingredient for prevention or treatment of stress-related disorder” (UNIVERSITY-INDUSTRY COOPERATION GROUP OF KYUNG HEE …, priority 2019, dated 2025)

Legend:
Format in all cases: in vivo, C57BL/6NTac mice
[1] = system: animal model of stress depression induced by chronic restrained stress (CRS); assay: Forced swimming test (FST) in CRS-induced stress depression model; conditions: CRS+BA group, oral daily 1 hour before restraint, 24 hours after TST, last 4 minutes of 6-minute test; dose not stated
Protocol: In order to confirm the antidepressant efficacy of bornyl acetate on the animal model of stress depression, an animal model of depression induced by chronic restrained stress (CRS) was prepared. Specifically, the animal model, 8-week-old male C57BL/6NTac mice after birth (Narabiotechnology, Korea; weight 22-24 g) had been stabilized for 1 week. A 50 ml conical tube (SPL Life sciences, Pocheon, Korea) was punched to make a hole, thereby making a restraint frame. The mice were put in the frame and restrained for 2 hours every day for 14 days. After restraint, the mice were allowed to freely ingest water and food in the home cage. 24 hours after the tail suspension test, distilled water (23-24° C.) was filled to a height of about 14 cm in a circular water tank (diameter 15×height 25 cm), and the mice were dropped and forced to swim. […] Bornyl acetate (25, 50 and 100 mg/kg) of the present invention was dissolved in 0.1 M PBS, and the mixture was orally administered 1 hour before inducing restrained stress every day. Bornyl acetate was administered in a dose per individual of 100 μl.

Iba-1 = assay: Immunohistochemical staining for Iba-1 (microglia activation) in brain of CRS model; conditions: hippocampus and amygdala, CRS+BA group, 100 mg/kg oral
Protocol: In order to confirm the antidepressant efficacy of bornyl acetate on the animal model of stress depression, an animal model of depression induced by chronic restrained stress (CRS) was prepared. Specifically, the animal model, 8-week-old male C57BL/6NTac mice after birth (Narabiotechnology, Korea; weight 22-24 g) had been stabilized for 1 week. A 50 ml conical tube (SPL Life sciences, Pocheon, Korea) was punched to make a hole, thereby making a restraint frame. The mice were put in the frame and restrained for 2 hours every day for 14 days. After restraint, the mice were allowed to freely ingest water and food in the home cage. Bornyl acetate (100 mg/kg) was administered orally 1 hour before induction of restraint stress every day. 14 days later, the mice were anesthetized, and 4% paraformaldehyde was perfused into the heart. Then, the mice were fixed, and the brain was excised. The excised brain was immersed in 4% paraformaldehyde and fixed at 4° C. for one more day. It was then changed to 30% sucrose, and the brain was stored at 4° C. for 3 days or more to prevent freeze damage. The brain was cut into a thickness of 30 μm using a cryocut microtome to prepare the frozen sections. […]

COX-2 mRNA = assay: RT-PCR of COX-2 mRNA in brain (hippocampus and amygdala) of CRS model; conditions: CRS+BA group, 100 mg/kg oral
Protocol: In order to confirm the antidepressant efficacy of bornyl acetate on the animal model of stress depression, an animal model of depression induced by chronic restrained stress (CRS) was prepared. Specifically, the animal model, 8-week-old male C57BL/6NTac mice after birth (Narabiotechnology, Korea; weight 22-24 g) had been stabilized for 1 week. A 50 ml conical tube (SPL Life sciences, Pocheon, Korea) was punched to make a hole, thereby making a restraint frame. The mice were put in the frame and restrained for 2 hours every day for 14 days. After restraint, the mice were allowed to freely ingest water and food in the home cage.
In order to confirm the inhibitory effect of bornyl acetate on the expression of inflammatory mediators in an animal model of depression induced by chronic restrained stress, mRNA expression was confirmed using reverse transcription-polymerase chain reaction (RT-PCR). Bornyl acetate (100 mg/kg) was orally administered 1 hour before inducing the restrained stress every day. […]
Western blot and RT-PCR analysis were performed in the brain (hippocampus and amygdala) of an animal model of chronic restrained stress (CRS)-induced stress depression to exam and quantify the activation level of inflammatory mediators, thereby verifying the modulating effect of bornyl acetate on the inflammatory response in the brain. […]

CC(=O)OC1CC2CCC1(C)C2(C)C (stereo not shown) [BA, bornyl acetate]
time of immobility, forced swimming test [1]: 85.2 s
activation degree of microglia immunostained by Iba-1 (Iba-1): consistent
mRNA expression of COX-2 (CRS-induced increase) (COX-2 mRNA; amygdala): significantly inhibited
mRNA expression of COX-2 (CRS-induced increase) (COX-2 mRNA; hippocampus): significantly inhibited
